Data: US9012433B2, “Substituted tetracycline compounds” (Paratek Pharmaceuticals, Inc., priority 2006, dated 2015)
Converted amounts (≈) assume the structure as drawn.

What was measured:
[1] = in vitro; assay type: cell-based
Summary of the method: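 COS-1 or CHO cells exposed to serial dilutions of test compound for 24 hours. Metabolic activity then read with resazurin (Alamar Blue): 2 hours incubation plus 30 minutes dark at room temperature, fluorescence ex 535/em 590 nm, treated versus control.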

[2] = test system: carrageenan induced rat paw inflammation; assay: Rat carrageenan-induced paw edema inflammatory model; assay type: in vivo; conditions: IP, various doses, FIG. 1
Description: The model used a sub-plantar injection of carrageenan in the rat to induce an inflammatory response. The test compound or saline (control) was administered IP 30 minutes before a subplantar injection of carrageenan (1.5 mg/0.1 mL). Paw volume was measured […] before subplantar injection and again 3 hours after the injection of carrageenan using a plethysmometer. Significant differences as determined by a Kruskal-Wallis One Way ANOVA are noted between the inflammation of the untreated controls versus treated animals […]

[3] = test system: S. aureus RN450; assay: In vivo anti-bacterial activity, S. aureus model; conditions: Staphylococcus aureus, sc; mice, lethal IP S. aureus RN450, single subcutaneous dose 5 mg/kg, 24 hours; read-out: Percent Survival
Description: Groups of five mice were injected intraperitoneally with a lethal dose of S. aureus RN450 in a medium of mucin. Mice were evaluated at 24 hours to determine survival. […] In some instances, a dose response study was performed with the compound such that a PD50 (a dose of compound that protects 50% of the animals) could be calculated.

[4] = test system: B. thetaiotaomicron ATCC 29741; assay: Antibacterial MIC, CLSI broth microdilution; assay type: cell-based; conditions: Bacteroides thetaiotaomicron, ATCC29741; 35° C., 18-24 hours; read-out: MIC B. thetaiotaomicron ATCC 29741
[5] = test system: S. pneumoniae 157E - Strep; assay: Antibacterial MIC, CLSI broth microdilution; assay type: cell-based; conditions: Streptococcus pneumoniae, 157ESTREP; 35° C., 18-24 hours; lysed horse blood
Summary of the method: (§1)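 CLSI broth microdilution in cation-supplemented Mueller Hinton broth, inoculum 1×10^5 cfu from 0.5 McFarland cultures diluted 1:200. Incubated 35° C in ambient air for 18-24 hours. Growth read spectrophotometrically and checked manually; MIC (μg/mL) is the lowest compound dilution inhibiting growth.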

[6] = test system: P. acnes ATCC 11827; assay: Antibacterial MIC, CLSI broth microdilution; assay type: cell-based; conditions: Cutibacterium acnes, ATCC11827; 35° C., 18-24 hours
Summary of the method: as §1

[7] = test system: E. coli ATCC 25922; assay: Antibacterial MIC, CLSI broth microdilution; assay type: cell-based; conditions: Escherichia coli, ATCC25922; 35° C., 18-24 hours
Summary of the method: as §1

[8] = test system: E. coli MG 1655; assay: Antibacterial MIC, CLSI broth microdilution; assay type: cell-based; conditions: Escherichia coli, MG1655; 35° C., 18-24 hours
Summary of the method: as §1

[9] = test system: S. aureus RN450; assay: Antibacterial MIC, CLSI broth microdilution; assay type: cell-based; conditions: Staphylococcus aureus, RN450; 35° C., 18-24 hours
Summary of the method: as §1

[10] = test system: P. acnes ATCC 6919; assay: Antibacterial MIC, CLSI broth microdilution; assay type: cell-based; conditions: Cutibacterium acnes, ATCC6919; 35° C., 18-24 hours
Summary of the method: as §1

Structure (SMILES): CCO/N=C(/C)c1ccc(O)c2c1C[C@H]1C[C@H]3[C@H](N(C)C)C(O)=C(C(N)=O)C(=O)[C@@]3(O)C(O)=C1C2=O [A]
- IC50 at 24 h ([1]; African green monkey): < 35 µg/mL
- IC50 at 24 h ([1]; Chinese hamster): < 35 µg/mL
- modulation of carrageenan induced inflammation compared with doxycycline [2]: improved activity
- responders at 5 mg/kg [3]: 100%
- MIC [4]: > 8 µg/mL
- MIC [5]: < 4 µg/mL
- MIC [6]: < 4 µg/mL
- MIC [7]: < 4 µg/mL
- MIC [8]: 4 to 8 µg/mL (≈ 8.01 to 16 µM)
- MIC [9]: < 4 µg/mL
- MIC [10]: < 4 µg/mL
